Test results from publication PMC12596500, “Affinity-selected peptide ligands specifically bind i-motif DNA and modulate c-Myc gene expression” (Nucleic Acids Research, 2025).
Peptide text beside a SMILES is read from it.

Assays:
[1] = biological target: DAPg; experiment: UV titration, DAPg; format: binding; set-up: key to Kd DAPg, 100 mM KCl: Binding classified as non-specific (NS) showed no consistent or concentration-dependent pattern, under the tested conditions; key to Kd DAPg: NS = non-specific binding indicates where no significant pattern of binding was observed at the concentration range of the experiment; conditions: for Kd DAPg: UV titration at 350 nm, 10 µM peptide, 10 mM sodium cacodylate pH 6.6, no KCl; for Kd DAPg, 100 mM KCl: UV titration, 10 mM sodium cacodylate 100 mM potassium chloride pH 6.6, two experiments
Description: UV titrations were recorded using an Agilent Cary-60 UV/VIS spectrometer with a 10 mm path length black-walled quartz cuvette. Oligonucleotides (c-MycC27, c-MycC52, c-MycG27, c-MycG52, DAPc, DAPg, and dsDNA; sequences listed in Supplementary Table S1) were annealed as 250 µM stock solutions in 10 mM sodium cacodylate buffer (pH 6.6) in the presence or absence of 100 mM KCl. Spectra were recorded at room temperature over a wavelength range of 300–500 nm with 1 nm intervals. Buffer-only spectra were recorded and subtracted from each dataset as blanks. Peptide ligands were prepared as 1 mM stock solutions in DMSO and added to the cuvette at a final concentration of 10 µM in buffer prior to DNA addition. DNA stock was diluted to 50 µM in buffer and was added stepwise to the peptide solution to reach 2.5 µM final concentration, followed by additions from the 250 µM DNA stock to reach final DNA concentrations of 30 or 50 µM. The absorbance at 350 nm was monitored and plotted against DNA concentration. Binding curves were fitted using a one-site binding model in GraphPad Prism version 10.1.2, and Kd values were determined from normalized data to represent the DNA-ligand bound fraction.
Despite the demonstrable importance of the extended five-tract C-rich sequence within the c-Myc promoter, most studies looking at ligand binding use the shorter sequences. […] Although the iM-targeting antibody is specific for iM as a structure, it also binds multiple types of iM-structures.

[2] = tested on: c-Myc promoter (Del-4) Firefly luciferase reporter in HEK293 cells; experiment: Dual-luciferase reporter assay, c-Myc promoter; format: cell-based, human; conditions: HEK293, 4 h, 1, 5 or 10 µM peptide with Nanocin Pro; Firefly/Renilla normalised to 0.2% DMSO; P < 0.001
Description: Cell studies: HEK293 cells (ATCC CRL-1573™, passages 20–28), MCF-7 cells (ATCC HTB-22™, passages 21–28), and Panc-1 cells (ATCC CRL-1469™, passages 15–22) were cultured in Dulbecco's Modified Eagle's Medium (DMEM) medium supplemented with 10% fetal bovine serum (FBS; Gibco, UK) and maintained under standard cell culture conditions (37°C, 5% CO2). Cells were passaged every 3–4 days at ∼80% confluency. For experiments, the cells were seeded into six-well plates at a density of 1 × 10⁵ cells/well in DMEM containing 10% FBS. […] Cell proliferation was assessed at 4 and 24 h post-treatment using the CellTiter 96® Aqueous One Solution Cell Proliferation Assay (Promega, USA). For this, 20 µl of reagent was added per well, and absorbance at 490 nm was measured after 4 and 24 h using a SpectraMax iD3 plate reader (Molecular Devices, UK). Blank values (media without cells) were subtracted, and readings were normalized to DMSO-treated controls. […] Statistical significance was determined using one-way ANOVA followed by Holm–Šídák post-hoc analysis performed in GraphPad Prism version 10.1.2. […]

CC(=O)N1CCC[C@H]1C(=O)N[C@H](C(=O)N[C@@H](CC(N)=O)C(=O)N[C@H](C(=O)N[C@@H](CO)C(=O)NCC(=O)N[C@@H](CCCNC(=N)N)C(=O)N[C@@H](CC(N)=O)C(=O)N[C@@H](Cc1ccc(O)cc1)C(=O)N[C@@H](CC(C)C)C(=O)N[C@@H](Cc1ccccc1)C(=O)N[C@@H](CS)C(N)=O)C(C)C)[C@@H](C)O [Pep-PTN] (Ac-PTNVSGRNYLFC-NH2)
Kd DAPg [1]: NS
Kd DAPg, 100 mM KCl [1]: NS
luciferase activity (c-Myc promoter activity) vs vehicle-only control [2]: concentration-dependent decreases in luciferase activity

CC(=O)N[C@H](C(=O)N[C@@H](CO)C(=O)N[C@@H](CCC(=O)O)C(=O)N[C@@H](C)C(=O)N[C@@H](Cc1c[nH]c2ccccc12)C(=O)N[C@@H](CCCCN)C(=O)N[C@@H](CCC(=O)O)C(=O)N[C@H](C(=O)N[C@@H](CCCCN)C(=O)NCC(=O)N[C@@H](Cc1ccccc1)C(=O)N[C@@H](Cc1ccccc1)C(N)=O)C(C)C)C(C)C [Pep-VSE] (Ac-VSEAWKEVKGFF-NH2)
Kd DAPg [1]: NS
Kd DAPg, 100 mM KCl [1]: NS
luciferase activity (c-Myc promoter activity) vs vehicle-only control [2]: concentration-dependent decreases in luciferase activity
